In patent US20210121482A1, “WITHANOLIDES FOR THE TREATMENT OF CACHEXIA” (University of Louisville Research Foundation, Inc., priority 2019, published 2021):

Columns and labels:
[1] = tested on: Caspase 1, NLRP3, IL-1β, IL-18, HO-1; test: IHC of NLRP3 inflammasome proteins in tumor samples; assay type: in vivo, mice
Protocol: Immunohistochemistry of Tumor Tissue: For the detection of various proteins, 10 μm thick sections were made from the midsection of tumor samples. A hydrophobic boundary was drawn around the sections and then they were fixed in 3.7% formaldehyde solution for 10 minutes. The slides were washed three times with 1×PBS for 5 minutes each. The sections were then blocked in 2% BSA in PBS for 30 minutes. The sections were then incubated with primary antibodies (1:100 dilution) overnight in a humidity chamber at 4° C. The sections were then washed three times with 1×PBS for 5 minutes. The slides were incubated in appropriate secondary antibodies (1:2000 dilution) for 45-60 minutes. Sections were counterstained with DAPI (1:2500 dilution) for 5 minutes to visualize nuclei. Slides were then washed twice in 1×PBS for 5 minutes, and then mounted for visualization. Nonspecific background staining was determined by performing the above protocol with omitting the inclusion of the primary antibodies. Refer to Table 2 for a complete list of antibodies utilized.

[2] = tested on: SKOV3; details: SKOV3 cells; cited from earlier work
[3] = tested on: TA, GA and QF muscles; test: Muscle mass and TA myofiber CSA (Example 2); assay type: in vivo, mice
Excerpt: Histology and Morphometric Analysis of Skeletal Muscle: Select muscles of the lower limb of the mice were isolated, flash frozen in liquid nitrogen, mounted in O.C.T. embedding medium, and then sectioned using a microtome cryostat. To assess tissue morphology, 10 μm thick transverse sections were cut from the mid-belly of the tibialis anterior (TA) and then subjected to Hematoxylin and Eosin (H&E) staining. Images of H&E-stained TA muscle sections were quantified using Fiji software (National Institute of Health software) to measure myofiber cross-sectional area (CSA). Skeletal myofiber CSA was calculated by analyzing ˜500-700 myofibers per muscle as previously described (32).
Post-mortem, select muscles of the lower extremities, including tibialis anterior (TA), gastrocnemius (GA), and quadriceps femoris (QF), were collected and weighed to detect changes in muscle mass, with results shown in FIG. 14A-14C, respectively. Muscle weights were normalized by the initial body weight (I.B.W.) to account for differences in the size of the mouse/muscle at baseline, while excluding the confounding effect of tumor burden on body weight.

[4] = tested on: A2780 ovarian cancer xenograft; details: mouse, in vivo
Protocol: Tumor-bearing groups received an IP injection of 1.0×10^6 low passage A2780 cells suspended in 100 μl sterile PBS.
Graphical Display and Statistical Analyses: The majority of the results were expressed as box-and-whisker plots with the box comprised of the first, second, and third quartiles, and the lower and upper whiskers corresponding to the minimum and maximum values, respectively, to display the entire range of data. A Kaplan-Meier curve was used for the survival analysis. Statistical analysis of the data was performed using one-way analysis of variance (ANOVA) followed by Tukey's Honestly Significant Difference Test (HSDT) post hoc analysis or the Mantel-Cox log-rank test to determine statistically significant differences between groups with GraphPad Prism 8.0.1 software for Mac (La Jolla, Calif., USA). A value of P<0.05 was considered statistically significant, unless otherwise specified.

[5] = tested on: angiotensinogen (AGT); test: qPCR of angiotensinogen in tumor tissues; assay type: in vivo, Homo sapiens
Protocol: Total RNA Extraction and qPCR: Isolation of total RNA from xenografted tumor samples was performed using an RNeasy® Mini Kit (Qiagen Catalog #74104) according to the manufacturer's instructions. Isolation of total RNA from skeletal muscle was performed using an RNeasy® Fibrous Tissue Mini Kit (Qiagen Catalog #74704) according to the manufacturer's instructions. First strand cDNA was synthesized using 1 μg of purified RNA and a commercially available kit (iScript™ cDNA synthesis, Bio-Rad Catalog #170-8891), Quantification of mRNA expression was performed similar to as previously described (Hindi and Kumar, 2016) using the SYBR Green dye method on a StepOnePlus™ system (Applied Biosystems) using gene-specific primers, as shown in Table 1.
Isolation and preparation of total RNA was performed as described in Example 1.

[6] = tested on: ovarian cancer-induced cachexia; test: Grip strength (Example 1); assay type: in vivo, mice; details: for normalized forelimb grip strength: 2 and 6 mg/kg
Protocol: Grip Strength Measurements: Before assessment, mice were weighed on a commercially available digital scale. Forepaw and total grip strength of mice were measured using a digital grip strength meter (Columbus Instruments, Columbus, Ohio, USA) and then normalized by total body weight. Before the beginning of the test, the mice were acclimatized for five minutes. The mouse was allowed to grasp the total paw pull-bar assembly, and in a separate experiment the forepaw pull-bar assembly. The mouse was then gently drawn with constant force in a straight line away from the device until the mouse could no longer grasp the bar. Force at time of release was recorded as the peak tension. Each mouse was tested five times with a delay of 20-40 seconds between each testing. The mean peak tension was calculated from the recordings normalized by total body weight.

[7] = tested on: TA, GA and QF muscles; test: Skeletal muscle weight and myofiber CSA (Example 1); assay type: in vivo, mice
Excerpt: Histology and Morphometric Analysis of Skeletal Muscle: The tibialis anterior (TA), gastrocnemius (GA) and quadriceps femoris (QF) of the mice were isolated, flash frozen in liquid nitrogen, mounted in OCT embedding medium, and then sectioned using a microtome cryostat. To assess tissue morphology, 10 μm thick transverse sections were cut from the mid-belly of the muscle and then subjected to hematoxylin and eosin (H&E) staining. Images of H&E-stained TA/GA/QF muscle sections were quantified using Image J and/or Fiji software to measure myofiber cross-sectional area (CSA). Myofiber CSA was calculated by analyzing ˜350-500 myofibers per muscle.

[8] = tested on: A2780 ovarian cancer cells; test: Tumor burden: free peritoneal tumors and bilateral ovaries (Example 3); assay type: in vivo, mice; details: tumor-bearing
Excerpt: Experimental tumors were induced as described in Example 2.
No significant difference in tumor weight between the two doses of WFA was observed (p=0.65).
The IP tumors were metastasized to select organs/anatomic regions known to be highly estrogen-responsive, including free-peritoneal tumors shown in FIG. 19D and bilateral ovaries shown in FIG. 19E.

[9] = 2 and 6 mg/kg, vs vehicle treated group
[10] = 2 and 6 mg/kg, vs control group

SMILES: CC1=C(CO)C(=O)O[C@@H]([C@@H](C)[C@H]2CC[C@H]3[C@@H]4C[C@H]5O[C@]56[C@@H](O)C=CC(=O)[C@]6(C)[C@H]4CC[C@]23C)C1 [WFA, (4β,5β,6β,22R)-4,27-Dihydroxy-5,6:22,26-diepoxyergosta-2,24-diene-1,26-dione]
- expression of IL-1β, IL-18 and HO-1 in tumor (IHC) ([1]; 2 mg/kg): drastically lowered the expression of IL-1β and IL-18 and increased the expression of HO-1
- expression of IL-1β, IL-18 and HO-1 in tumor (IHC) ([1]; 6 mg/kg): intermediate expression of all three proteins
- Caspase 1 and NLRP3 staining in tumor (IHC) [1, 9]: reduction in Caspase 1 and NLRP3 staining
- cell cycle arrest and apoptosis [2]: induces cell cycle arrest and the induction of apoptosis
- normalized wet weight of TA and GA muscles ([3]; tumor-bearing, 2 and 4 mg/kg, vs vehicle-treated): statistically significant increase in normalized wet weight of the TA and GA muscles
- average myofibrillar cross-sectional area (CSA) in TA muscle ([3]; tumor-bearing, WFA 2 mg/kg): 1629.72±94.96 μm2
- average myofibrillar cross-sectional area (CSA) in TA muscle ([3]; tumor-bearing, WFA 4 mg/kg): 1748.13±68.90 μm2
- normalized weight of TA, GA and QF muscles ([3]; tumor-free, 4 mg/kg, vs vehicle-treated, normalized by initial body weight): significant increase in normalized weight of the TA, GA, and QF muscles
- average myofibrillar cross-sectional area (CSA) in TA muscle ([3]; tumor-free, WFA 2 mg/kg): 1916.39±85.72 μm2
- average myofibrillar cross-sectional area (CSA) in TA muscle ([3]; tumor-free, WFA 4 mg/kg): 1904.98±80.50 μm^2
- toxicity of high dose [4]: turned out to be toxic
- relative transcript levels of angiotensinogen in tumor samples ([5]; WFA 2 mg/kg): 0.3676±0.252 fold change
- relative transcript levels of angiotensinogen in tumor samples ([5]; WFA 4 mg/kg): 0.0694±0.144 fold change
- normalized total limb grip strength ([6]; 2 mg/kg, vs vehicle treated group, weeks 1-3): significant protective effect on total limb grip strength
- normalized total limb grip strength ([6]; 6 mg/kg, vs vehicle treated group): initially protective, but the grip strength eventually deteriorated to the same extent as the vehicle treated group
- normalized forelimb grip strength ([6]; vs control group, significant at week 3): reduction in normalized grip strength
- normalized forelimb grip strength ([6]; vs vehicle treated group, significant by week 2): attenuation of normalized forelimb grip strength
- normalized wet weight of gastrocnemius (GA) ([7]; 2 mg/kg, vs control group): significant reduction in normalized wet weight
- myofibrillar CSA in GA muscle ([7]; 2 mg/kg, vs control group (p=0.09)): restoration of myofibrillar CSA
- wet weight of quadriceps femoris (QF) ([7]; 6 mg/kg, vs control group): significant reduction in wet weight
- restoration of myofibrillar CSA in GA muscle ([7]; 6 mg/kg, vs control group (p=0.007)): not those treated with 6 mg/kg of WFA
- average myofiber CSA (TA and QF) [7, 10]: significant reduction in average myofiber CSA
- normalized wet weight of tibialis anterior (TA) [7, 10]: significant reduction in normalized wet weight
- average myofiber CSA (TA, GA, QF) [7, 9]: significantly greater than the vehicle treated group
- normalized muscle weights (TA, GA, QF) [7, 9]: no difference between the vehicle and WFA treated groups
- normalized weights of the bilateral ovaries ([8]; WFA 2 mg/kg): 10.38±1.32 mg/g IBW
- weight of visible tumors ([8]; WFA 2 mg/kg): 1.6 ± 0.19 g
- normalized weights of the bilateral ovaries ([8]; WFA 4 mg/kg): 12.05±2.09 mg/g IBW
- weight of visible tumors ([8]; WFA 4 mg/kg): 1.9 ± 0.35 g
